This note sets out measurements from patent US8815879B2, “Substituted 4-(selenophen-2(or-3)-ylamino)pyrimidine compounds and methods of use thereof” (Kasina Laila Innova Pharmaceuticals Private Limited, priority 2010, dated 2014).

For experiment [1], the system named is human colorectal carcinoma HT29 cells. Briefly: MTT based cell proliferation assay, HT29. To be noted: for IC50: read-out: Cell Proliferation Inhibition in HT29 (Colon carcinoma), IC50; for inhibition at 10 µg/mL: read-out: Cell Proliferation Inhibition in HT29 (Colon carcinoma), % at highest screening dose.
Description: (§1) MTT [3-(4,5-dimethylthiazol-2-yl)-2,5-diphenyltetrazolium bromide] incorporation based cell proliferation assay was performed using standard procedure. […] The assay was carried out according to the instructions provided by the vendor. […] Vehicle control culture wells received only a maximum of 0.5% DMSO. Thereafter, 0.5 mg/ml of MTT reagent was added to each well and the microplate was incubated further for 4 h at 37° C. in presence of 5% CO2. Finally, the cells were solubilized by adding solubilizing solution and allowed to incubate at 37° C. overnight. After complete solubilization of the formazan crystals the absorbance was read at 540 nm in a microplate reader (BioRad, USA).
(§2) The evaluation of cell proliferation inhibitory activities of the compounds was done in two phases—(1) Screening, and (2) half-maximal inhibitory concentration (IC50) determination. In the screening phase, the cells were treated with three different concentrations e.g. 1, 5 and 10 μg/ml.
Experiment [2] concerns human lung carcinoma A549 cells. Briefly: MTT based cell proliferation assay, A549. Conditions: for inhibition at 10 µg/mL / IC50: Homo sapiens, A549, 72 h; for inhibition at 10 µg/mL: read-out: Cell Proliferation Inhibition in A549 (Lung carcinoma), % at highest screening dose; for IC50: read-out: Cell Proliferation Inhibition in A549 (Lung carcinoma), IC50.
Description: as §1, §2
Experiment [3] concerns human prostate DU145 cells. Briefly: MTT based cell proliferation assay, DU145. To be noted: for inhibition at 10 µg/mL: read-out: Cell Proliferation Inhibition in DU145 (Prostate carcinoma), % at highest screening dose; for IC50: read-out: Cell Proliferation Inhibition in DU145 (Prostate carcinoma), IC50.

Where two headings read alike, the source gives them in different places.

For the molecule `COc1cc2ncnc(Nc3cc(C(C)(C)C)[se]c3[N+](=O)[O-])c2cc1OCCCN1CCOCC1` [Compound 4, [5-(tert-butyl)-2-nitroselenophen-3-yl][7-methoxy-6-(3-morpholino-propoxy)quinazolin-4-yl]amine], the IC50 in experiment [1] (Homo sapiens, HT-29, 72 h) turned out to be 19.3 µM. The inhibition at 10 µg/mL in experiment [2] is 10.4%; in experiment [3] (Homo sapiens, DU-145, 72 h) it was 9.85%.

As to `COc1cc2nc(C)nc(Nc3cc(C(C)(C)C)[se]c3C(N)=O)c2cc1OC` [Compound 24, 3-(6,7-dimethoxy-2-methylquinazolin-4-ylamino)-5-tert-butylselenophene-2-carboxamide], the IC50 in experiment [1] (Homo sapiens, HT-29, 72 h) was 10.6 µM. The inhibition at 10 µg/mL in experiment [2] stood at 15.1%; in experiment [3] (Homo sapiens, DU-145, 72 h) it was 87.7%.

Regarding `CCc1c(C)[se]c2ncnc(Nc3cc(C(C)(C)C)[se]c3C(N)=O)c12` [Compound 19, 3-(5-ethyl-6-methylselenopheno[2,3-d]pyrimidin-4-ylamino)-5-tert-butylselenophene-2-carboxamide], the inhibition at 10 µg/mL in experiment [1] (Homo sapiens, HT-29, 72 h) was found to be 43.9%; in experiment [2], 7.86%; in experiment [3] (Homo sapiens, DU-145, 72 h), 6.68%.

Take `CC(C)(C)c1cc(Nc2ncnc3ccc(N)cc23)c(C(N)=O)[se]1` [Compound 8, 3-(6-aminoquinazolin-4-ylamino)-5-tert-butylselenophene-2-carboxamide]: the inhibition at 10 µg/mL in experiment [1] (Homo sapiens, HT-29, 72 h) came out at 81.9%; in experiment [2], 7.6%; in experiment [3] (Homo sapiens, DU-145, 72 h) it was 15.7%.

For the molecule `CC(C)(C)c1cc(Nc2ncnc3cc(C(C)(C)C)[se]c23)c(C(N)=O)[se]1` [Compound 18, 3-(6-tert-butylselenopheno[3,2-d]pyrimidin-4-ylamino)-5-tert-butylselenophene-2-carboxamide], the inhibition at 10 µg/mL in experiment [1] (Homo sapiens, HT-29, 72 h) amounted to 36.4%; in experiment [2], 2.18%; in experiment [3] (Homo sapiens, DU-145, 72 h), 7.87%.

As for `COc1cc2ncnc(Nc3cc(-c4ccccc4)[se]c3C(N)=O)c2cc1OCCCN1CCOCC1` [Compound 7, 3-(6-(3-morpholinopropoxy)-7-methoxyquinazolin-4-ylamino)-5-phenyl-selenophene-2-carboxamide], the inhibition at 10 µg/mL in experiment [1] (Homo sapiens, HT-29, 72 h) turned out to be 85.8%. In addition, the IC50 was found to be 6.08 µM in experiment [2] and 5.84 µM in experiment [3] (Homo sapiens, DU-145, 72 h).

For `COCCOc1cc2ncnc(Nc3cc(C(C)(C)C)[se]c3C(N)=O)c2cc1OCCOC` [Compound 6, 3-(6,7-bis(2-methoxyethoxy)quinazolin-4-ylamino)-5-tert-butylselenophene-2-carboxamide], the inhibition at 10 µg/mL in experiment [1] (Homo sapiens, HT-29, 72 h) amounted to 86.4%; in experiment [2], 5.09%; in experiment [3] (Homo sapiens, DU-145, 72 h) it was 39.7%.

On to `CC(C)(C)c1cc(Nc2ncnc3ncccc23)c(C(N)=O)[se]1` [Compound 12, 5-tert-butyl-3-(pyridino[2,3-d]pyrimidin-4-ylamino)selenophene-2-carboxamide], for which the inhibition at 10 µg/mL is 6.75% in experiment [1] (Homo sapiens, HT-29, 72 h); 7% in experiment [2]; 9.18% in experiment [3] (Homo sapiens, DU-145, 72 h).

For the molecule `COc1cc2ncnc(N(C)c3cc(C(C)(C)C)[se]c3C(N)=O)c2cc1OCCCN1CCOCC1` [Compound 22, 3-(N-(6-(3-morpholinopropoxy)-7-methoxyquinazolin-4-yl)-N-methylamino)-5-tert-butylselenophene-2-carboxamide], the inhibition at 10 µg/mL in experiment [1] (Homo sapiens, HT-29, 72 h) turned out to be 34.3%; in experiment [2], 3.93%; in experiment [3] (Homo sapiens, DU-145, 72 h), 14.7%.

`CCc1c(C)sc2ncnc(Nc3cc(C(C)(C)C)[se]c3C(N)=O)c12` [Compound 13, 3-(5-ethyl-6-methylthiopheno[2,3-d]pyrimidin-4-ylamino)-5-tert-butylselenophene-2-carboxamide]: the inhibition at 10 µg/mL in experiment [1] (Homo sapiens, HT-29, 72 h) worked out at 30.2%; in experiment [2] it was 5.68%; in experiment [3] (Homo sapiens, DU-145, 72 h), 8.49%.

Consider `COC(=O)c1cc(Nc2ncnc3cc(OC)c(OCCCN4CCOCC4)cc23)c(C)[se]1` [Compound 10, methyl 4-(6-(3-morpholinopropoxy)-7-methoxyquinazolin-4-ylamino)-5-methylselenophene-2-carboxylate], for which the inhibition at 10 µg/mL in experiment [1] (Homo sapiens, HT-29, 72 h) was 6.11%; in experiment [2], 10.3%; in experiment [3] (Homo sapiens, DU-145, 72 h), 21.4%.

`CSc1nc2ncnc(Nc3cc(C(C)(C)C)[se]c3C(N)=O)c2s1` [Compound 20, 3-(2-(methylthio)thiazolo[4,5-d]pyrimidin-7-ylamino)-5-tert-butylseleno-phene-2-carboxamide]: the IC50 in experiment [1] (MTT, three days incubation) stood at 9.54 µM; in experiment [3] (MTT, three days incubation), 17.9 µM. Also, the “Cell Proliferation Inhibition in A549 (Lung carcinoma), % at highest screening dose” value in experiment [2] (at 10 μg/ml (highest dose tested in screening), micromolar equivalent printed in each cell, three days) was determined as 1.28% at 23.42 μM.

In the case of `COc1cc2ncnc(N(CCCl)c3cc(C(C)(C)C)[se]c3C(N)=O)c2cc1OCCCN1CCOCC1` [Compound 23, 3-(N-(6-(3-morpholinopropoxy)-7-methoxyquinazolin-4-yl)-N-(2-chloroethyl)amino)-5-tert-butylselenophene-2-carboxamide], the inhibition at 10 µg/mL is 40.7% in experiment [1] (Homo sapiens, HT-29, 72 h); 3.28% in experiment [2]; 22.4% in experiment [3] (Homo sapiens, DU-145, 72 h).

With `COc1cc2c(Nc3cc(C(C)(C)C)[se]c3C(N)=O)ncnc2cc1OCCCN1CCOCC1` [Compound 5, 3-(7-(3-morpholinopropoxy)-6-methoxyquinazolin-4-ylamino)-5-tert-butylselenophene-2-carboxamide], the IC50 stood at 4.07 µM in experiment [1] (Homo sapiens, HT-29, 72 h); 4.6 µM in experiment [2]; 3.9 µM in experiment [3] (Homo sapiens, DU-145, 72 h). Moreover, in experiment [1] (ratio of IC50 values), the “potency in vitro compared to gefitinib (Iressa), HT29” value was “several times better potency”. In experiment [2] (ratio of IC50 values), the “potency in vitro compared to gefitinib (Iressa), A549” value is “approximately four times”. The “potency in vitro compared to gefitinib (Iressa), DU145” value in experiment [3] (ratio of IC50 values) is listed as “several times better potency”.

As for `COC(=O)c1cc(Nc2nc(C)nc3cc(OC)c(OC)cc23)c(C)[se]1` [Compound 25, methyl 4-(6,7-dimethoxy-2-methylquinazolin-4-ylamino)-5-methylselenophene-2-carboxylate], the inhibition at 10 µg/mL in experiment [1] (Homo sapiens, HT-29, 72 h) was 11.8%; in experiment [2], 2.95%; in experiment [3] (Homo sapiens, DU-145, 72 h), 2.59%.

For `CC(C)(C)c1cc(Nc2ncnc3ccc(NC(=O)CCl)cc23)c(C(N)=O)[se]1` [Compound 9, 3-(6-(2-chloroacetamido)quinazolin-4-ylamino)-5-tert-butylselenophene-2-carboxamide], the IC50 in experiment [1] (Homo sapiens, HT-29, 72 h) was determined as 9.24 µM; in experiment [3] (Homo sapiens, DU-145, 72 h), 8.51 µM. Besides, in experiment [2], the inhibition at 10 µg/mL stood at 0.19%.

In the case of `COc1cc2ncnc(Nc3cc(C(N)=O)[se]c3C)c2cc1OCCCN1CCOCC1` [Compound 11, 4-(6-(3-morpholinopropoxy)-7-methoxyquinazolin-4-ylamino)-5-methylselenophene-2-carboxamide], the inhibition at 10 µg/mL was determined as 7.41% in experiment [1] (Homo sapiens, HT-29, 72 h); 16% in experiment [2]; 5.15% in experiment [3] (Homo sapiens, DU-145, 72 h).

On to `COc1cc2ncnc(Nc3cc(C(C)(C)C)[se]c3C(N)=O)c2cc1OCCCN1CCOCC1` [Compound 3, 3-(6-(3-morpholinopropoxy)-7-methoxyquinazolin-4-ylamino)-5-tert-butylselenophene-2-carboxamide], for which the IC50 in experiment [1] (Homo sapiens, HT-29, 72 h) amounted to 5.12 µM; in experiment [2], 6.71 µM; in experiment [3] (Homo sapiens, DU-145, 72 h) it was 7.39 µM.

Turning to `COc1cc2nc(C)nc(Nc3cc(C(C)(C)C)[se]c3C(N)=O)c2cc1OCCCN1CCOCC1` [Compound 26, 3-(6-(3-morpholinopropoxy)-7-methoxy-2-methylquinazolin-4-ylamino)-5-tert-butylselenophene-2-carboxamide], the IC50 in experiment [1] (Homo sapiens, HT-29, 72 h) turned out to be 4.28 µM; in experiment [2], 11.7 µM; in experiment [3] (Homo sapiens, DU-145, 72 h), 6.78 µM.
